From the supplement of paper PMC13380429

How the values were obtained:
Details in all cases: 72 h
[1] = tested on: Caco-2; experiment: drug sensitivity score (DSS) for viability; higher = more toxic; extreme values may be limits of the assay
[2] = tested on: HepG2; experiment: as above
[3] = tested on: Calu-3; experiment: as above
[4] = tested on: U2OS; experiment: as above
[5] = tested on: Vero E6; experiment: as above
[6] = tested on: Caco-2; experiment: cell viability relative to DMSO; higher = less toxic
[7] = tested on: HepG2; experiment: as above
[8] = tested on: Calu-3; experiment: as above
[9] = tested on: U2OS; experiment: as above
[10] = tested on: Vero E6; experiment: as above
[11] = tested on: Caco-2; experiment: relative viability EC50 (midpoint between 100% and the lowest measured viability); higher = less toxic
[12] = tested on: HepG2; experiment: as above
[13] = tested on: Calu-3; experiment: as above
[14] = tested on: U2OS; experiment: as above
[15] = tested on: Vero E6; experiment: as above

Row | SMILES | drug sensitivity score [1] | drug sensitivity score [2] | drug sensitivity score [3] | drug sensitivity score [4] | drug sensitivity score [5] | cell viability ([6]; 1 nM) | cell viability ([6]; 10 nM) | cell viability ([6]; 100 nM) | cell viability ([6]; 1000 nM) | cell viability ([6]; 10000 nM) | cell viability ([7]; 1 nM) | cell viability ([7]; 10 nM) | cell viability ([7]; 100 nM) | cell viability ([7]; 1000 nM) | cell viability ([7]; 10000 nM) | cell viability ([8]; 1 nM) | cell viability ([8]; 10 nM) | cell viability ([8]; 100 nM) | cell viability ([8]; 1000 nM) | cell viability ([8]; 10000 nM) | cell viability ([9]; 1 nM) | cell viability ([9]; 10 nM) | cell viability ([9]; 100 nM) | cell viability ([9]; 1000 nM) | cell viability ([9]; 10000 nM) | cell viability ([10]; 1 nM) | cell viability ([10]; 10 nM) | cell viability ([10]; 100 nM) | cell viability ([10]; 1000 nM) | cell viability ([10]; 10000 nM) | relative viability EC50 [11] | relative viability EC50 [12] | relative viability EC50 [13] | relative viability EC50 [14] | relative viability EC50 [15]
1 | CC(C)(C=O)Cc1cc(C(C)(C)C)c(O)c(C(C)(C)C)c1 | 0 | 0 | 0 | 0 | 0 | 92.7% | 97.6% | 97.6% | 90.4% | 96.7% | 97.2% | 96.1% | 108% | 99.9% | 90.9% | 102% | 98.8% | 91.2% | 100% | 102% | 106% | 103% | 104% | 98.1% | 102% | 97.1% | 97.8% | 103% | 98.4% | 101% | > 10 µM | > 10 µM | > 10 µM | > 10 µM | > 10 µM
2 | CN=c1nc(-c2ccccc2)n(-c2ccccc2)s1 | 0 | 0 | 0 | 0 | 0 | 97.2% | 105% | 97% | 97.7% | 89% | 98.4% | 99.8% | 98% | 92.2% | 95.7% | 110% | 101% | 95.8% | 89.9% | 96% | 95.5% | 98.1% | 93.4% | 96.9% | 93.8% | 97.8% | 99.3% | 96.7% | 101% | 87.9% | > 10 µM | > 10 µM | > 10 µM | > 10 µM | > 10 µM
3 | CO[C@H]1/C=C/O[C@@]2(C)Oc3c(C)c(O)c4c(O)c(c(/C=N/N=C/N5CCCCC5)c(O)c4c3C2=O)NC(=O)/C(C)=C\C=C\[C@H](C)[C@H](O)[C@@H](C)[C@@H](O)[C@@H](C)[C@H](OC(C)=O)[C@@H]1C | 0 | 0 | 0 | 0 | 0 | 85.4% | 96.2% | 84.9% | 90.9% | 83.1% | 98.5% | 101% | 93.3% | 113% | 108% | 107% | 102% | 105% | 98.2% | 101% | 102% | 106% | 99% | 99.6% | 91.6% | 102% | 100% | 98% | 98.2% | 90.9% | > 10 µM | > 10 µM | > 10 µM | > 10 µM | > 10 µM
4 | COc1[nH]c2ccc(F)cc2c1C(=O)OCC1CCN(CCNS(C)(=O)=O)CC1 | 0 | 0 | 0 | 0 | 0 | 103% | 99.3% | 96.7% | 98.2% | 98.3% | 98.7% | 105% | 97.2% | 101% | 94.6% | 96% | 94.3% | 92.2% | 105% | 107% | 104% | 94.5% | 100% | 97.2% | 98.9% | 103% | 108% | 102% | 104% | 97.3% | > 10 µM | > 10 µM | > 10 µM | > 10 µM | > 10 µM
5 | COc1ccc(NS(=O)(=O)c2ccc(I)cc2)cc1N1CCN(C)CC1 | 0 | 0.4 | 0 | 0 | 0 | 109% | 98% | 102% | 98.5% | 93.3% | 108% | 104% | 100% | 99.9% | 82.6% | 95.6% | 94.7% | 102% | 93.3% | 101% | 101% | 97.7% | 102% | 99.8% | 98.2% | 103% | 107% | 102% | 100% | 92.2% | > 10 µM | > 10 µM | > 10 µM | > 10 µM | > 10 µM
6 | COc1ccc(S(=O)(=O)Nc2c(C)cc(C)cc2C)cc1 | 0 | 0 | 0 | 0 | 0 | 106% | 94.2% | 93.6% | 94.9% | 94.1% | 105% | 98% | 105% | 99.5% | 97.3% | 103% | 96.5% | 94.6% | 106% | 102% | 103% | 98.7% | 101% | 98.5% | 99.6% | 101% | 105% | 97.2% | 101% | 93.7% | > 10 µM | > 10 µM | > 10 µM | > 10 µM | > 10 µM
7 | COc1nccc(-c2c(-c3ccc(F)cc3)ncn2C2CCNCC2)n1 | 0 | 0.4 | 0 | 0 | 1.4 | 95.8% | 95.7% | 87.6% | 95.2% | 87.8% | 93.9% | 99.8% | 104% | 88.4% | 94.6% | 87.3% | 93.7% | 90.7% | 95.7% | 83.3% | 96.3% | 99.5% | 97.1% | 96.9% | 90% | 100% | 97% | 94.4% | 83.6% | 89% | > 10 µM | > 10 µM | > 10 µM | > 10 µM | > 10 µM
8 | C[C@H](Cc1ccc2c(c1)OC(C(=O)O)(C(=O)O)O2)NC[C@H](O)c1cccc(Cl)c1 | 0 | 0 | 0 | 0 | 0 | 103% | 101% | 104% | 97.3% | 111% | 97.9% | 101% | 103% | 101% | 97.4% | 103% | 101% | 90.6% | 92.9% | 91.1% | 104% | 101% | 99.1% | 99% | 102% | 97.5% | 97.2% | 93.1% | 96.4% | 97.9% | > 10 µM | > 10 µM | > 10 µM | > 10 µM | > 10 µM
9 | Cc1ccc(N2CCN(CC[C@H]3NC(=O)c4ccccc43)CC2)cc1C | 0 | 0 | 0 | 0 | 0 | 97.3% | 90.7% | 92.4% | 97% | 96.4% | 90.2% | 96.1% | 96.2% | 95.2% | 97.3% | 104% | 96.1% | 95.6% | 99.7% | 113% | 96.7% | 101% | 98.9% | 96.2% | 102% | 90.8% | 97.7% | 93.4% | 98.7% | 111% | > 10 µM | > 10 µM | > 10 µM | > 10 µM | > 10 µM
10 | Cc1ccc(S(=O)(=O)Cc2nc(-c3ccc(C(=O)NCc4cccnc4)cc3)oc2C)cc1 | 27.6 | 28.2 | 28.3 | 29.7 | 29.2 | 104% | 107% | 11.2% | 5.4% | 16.6% | 101% | 77.3% | 23.5% | 12.2% | 9.5% | 105% | 102% | 8.7% | 5.3% | 5.3% | 96.4% | 108% | 1.1% | -0.1% | -0.2% | 106% | 110% | 2.3% | 1.5% | 2.6% | 0.0408 µM | 0.0249 µM | 0.036 µM | 0.0364 µM | 0.0372 µM
11 | Cn1cc(-c2ccc(F)c(C(F)(F)F)c2)nc1C1CCN(c2ncnc3[nH]ncc23)CC1 | 0.2 | 0 | 0.4 | 0.7 | 0 | 97% | 96.9% | 102% | 102% | 84.5% | 106% | 97.8% | 106% | 91.7% | 94.7% | 95.6% | 90.2% | 96.4% | 94.1% | 82.1% | 96.9% | 94.5% | 90.3% | 90.9% | 84.6% | 98.4% | 106% | 96.7% | 95.4% | 92% | > 10 µM | > 10 µM | > 10 µM | > 10 µM | > 10 µM
12 | O=C(Nc1cc(C(F)(F)F)cc(C(F)(F)F)c1)c1cnc(Cl)nc1C(F)(F)F | 0 | 0 | 0 | 0 | 0 | 102% | 94.3% | 102% | 103% | 97.7% | 90.4% | 96.7% | 99.8% | 97% | 92.6% | 98.3% | 109% | 101% | 104% | 99.2% | 100% | 100% | 102% | 99.9% | 94.9% | 96% | 97.5% | 97.1% | 97.2% | 102% | > 10 µM | > 10 µM | > 10 µM | > 10 µM | > 10 µM
13 | O=C1C(Cl)=C(NCCN2CCOCC2)C(=O)c2ncccc21 | 9.4 | 7.8 | 4.7 | 6.2 | 1.7 | 94% | 90.9% | 89.5% | 68.4% | 1.1% | 94% | 90.7% | 87.6% | 86.1% | 1.6% | 110% | 104% | 100% | 109% | 5.1% | 98.1% | 94.1% | 99.5% | 95.3% | 0% | 102% | 100% | 100% | 99.3% | 65.4% | 1.46 µM | 2.04 µM | 3.61 µM | 2.8 µM | –
14 | OCCn1cc(-c2cnc3nnn(Cc4ccc5ncccc5c4)c3n2)cn1 | 1.8 | 1.3 | 0 | 0 | 0 | 93.7% | 100% | 97.1% | 86.2% | 79.2% | 102% | 93.6% | 88.8% | 97.7% | 74.9% | 99% | 92.2% | 93% | 93.9% | 103% | 105% | 101% | 99.3% | 95.3% | 97.1% | 99.7% | 105% | 97.7% | 97.7% | 96.4% | > 10 µM | – | > 10 µM | > 10 µM | > 10 µM
